This data set in a line: Solubility of etioporphyrin-I in chloroform. In kind it is physicochemical. To be noted: solvent chloroform. Here is the method:
In addition to the problems associated with the isolation of the dipyrromethenes, another difficulty in the syntheses of etioporphyrin I is the work up and purification procedures for isolating etioporphyrin-I. The coupling reaction of the dipyrromethenes (see Scheme 3, (5) and (6)) is carried out in refluxing formic acid. Generally, this gives a tarry, black reaction mixture that yield about 20-35% of etioporphyrin-I after extensive chromatography. On small scales (1-40 g of dipyrromethenes), dissolution of the tarry reaction mixture in chloroform, followed by neutralization and chromatography on large amounts of silica affords the desired porphyrin. […] During this process it is not uncommon for etioporphyrin-I to precipitate from solution onto the silica gel, making column chromatography (even on small scale (10 g)) difficult. Clearly, such a process is not feasible economically on large scale.

Bounds are passed on as bounds.

This is an account of results in patent US20230167124A1, “Methods for the Production of Nickel (II) Etioporphyrin-I” (Adgero Biopharmaceuticals Holdings, Inc., priority 2020, published 2023).

With etioporphyrin-I, the solubility in chloroform is below 10000 µg/mL.
